From patent publication US7767670B2, “Substituted 3-carboxamido isoxazoles as kinase modulators” (Ambit Biosciences Corporation, priority 2003, dated 2010)

Biological target: T1, MKNK2 (Homo sapiens, UniProt Q9HBH9)
T1 construct: made in house; host or cells: T7 bacteriophage display
Assay: Binding constant (Kd) measurement, phage-displayed kinase competition binding assay
Settings: immobilized ATP site ligand competition, read-out: activity towards the target (Kd)
Description: Binding Constant (Kd) Measurements for Small-Molecule-Kinase Interactions

T1 sequence (Q9HBH9 whole entry): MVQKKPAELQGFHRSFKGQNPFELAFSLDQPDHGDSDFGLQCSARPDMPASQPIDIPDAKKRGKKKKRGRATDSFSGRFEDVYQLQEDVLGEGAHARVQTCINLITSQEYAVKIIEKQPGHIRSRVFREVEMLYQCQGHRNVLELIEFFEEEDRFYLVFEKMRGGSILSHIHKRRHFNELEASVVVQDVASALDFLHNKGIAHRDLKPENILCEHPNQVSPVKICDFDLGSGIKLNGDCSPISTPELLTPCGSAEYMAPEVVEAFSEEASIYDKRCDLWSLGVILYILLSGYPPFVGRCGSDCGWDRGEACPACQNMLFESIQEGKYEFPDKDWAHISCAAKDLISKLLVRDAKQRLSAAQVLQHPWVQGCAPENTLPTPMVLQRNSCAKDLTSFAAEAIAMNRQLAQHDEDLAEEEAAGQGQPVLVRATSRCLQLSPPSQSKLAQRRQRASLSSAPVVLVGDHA

Kd: < 0.05 µM
Structure (SMILES): CC(C)(C)c1cc(NC(=O)Cc2ccc(NC(=O)c3ccc4cnccc4n3)cc2)no1 [Compound F2]
